# Results from US12540141B2, “Spiropyrrolidine derived antiviral agents” (priority 2020, dated 2026).
# Biological target: SARS-CoV-2 3CL-protease (Severe acute respiratory syndrome coronavirus 2, UniProt P0DTD1)
# Assay: SARS-CoV-2 3C-Like (3CL) Protease Fluorescence Assay (FRET)
# Assay type: biochemical
# Details: SARS-CoV-2 3CL-protease 10 nM, 30 min preincubation at RT, substrate 40 μM
row,Structure (SMILES),IC50 [nM]
1,CN(C(=O)c1cc2cccnc2[nH]1)[C@@H](CC1CC1)C(=O)N1C[C@]2(C[C@H]1C#N)C(=O)Nc1ccc(Cl)cc12 [Example 459],< 100
2,Cc1ccnc2[nH]c(C(=O)N(C)[C@@H](CC3CC3)C(=O)N3C[C@]4(C[C@H]3C#N)C(=O)Nc3ccc(Cl)cc34)cc12 [Example 460],< 100
3,Cc1cnc2[nH]c(C(=O)N(C)[C@@H](CC3CC3)C(=O)N3C[C@]4(C[C@H]3C#N)C(=O)Nc3ccc(Cl)cc34)cc2c1 [Example 461],< 100
4,Cc1ccc2cc(C(=O)N(C)[C@@H](CC3CC3)C(=O)N3C[C@]4(C[C@H]3C#N)C(=O)Nc3ccc(Cl)cc34)[nH]c2n1 [Example 462],< 100
5,CN(C(=O)c1nc2cccnc2[nH]1)[C@@H](CC1CC1)C(=O)N1C[C@]2(C[C@H]1C#N)C(=O)Nc1ccc(Cl)cc12 [Example 463],< 100
6,CC(C)C[C@@H](C(=O)N1C[C@]2(C[C@H]1C#N)C(=O)Nc1ccccc12)N(C)C(=O)c1cc2cccnc2[nH]1 [Example 464],< 100
7,Cc1ccc2cc(C(=O)N(C)[C@@H](CC(C)C)C(=O)N3C[C@]4(C[C@H]3C#N)C(=O)Nc3ccccc34)[nH]c2n1 [Example 465],< 100
8,CN(C(=O)c1cc2cccnc2[nH]1)[C@@H](CC(C)(C)F)C(=O)N1C[C@]2(C[C@H]1C#N)C(=O)Nc1ccccc12 [Example 466],< 100
9,Cc1ccc2cc(C(=O)N(C)[C@@H](CC(C)(C)F)C(=O)N3C[C@]4(C[C@H]3C#N)C(=O)Nc3ccccc34)[nH]c2n1 [Example 467],< 100
10,CC(C)C[C@@H](C(=O)N1C[C@]2(C[C@H]1C#N)C(=O)Nc1ccc(Cl)cc12)N(C)C(=O)c1cc2cccnc2[nH]1 [Example 468],< 100
11,Cc1ccc2cc(C(=O)N(C)[C@@H](CC(C)C)C(=O)N3C[C@]4(C[C@H]3C#N)C(=O)Nc3ccc(Cl)cc34)[nH]c2n1 [Example 469],< 100
12,CN(C(=O)c1cc2cccnc2[nH]1)[C@@H](CC(C)(C)F)C(=O)N1C[C@]2(C[C@H]1C#N)C(=O)Nc1ccc(Cl)cc12 [Example 470],< 100
13,Cc1ccc2cc(C(=O)N(C)[C@@H](CC(C)(C)F)C(=O)N3C[C@]4(C[C@H]3C#N)C(=O)Nc3ccc(Cl)cc34)[nH]c2n1 [Example 471],< 100
14,"[2H]C([2H])([2H])N(C(=O)c1cc2c(F)cc(F)cc2[nH]1)[C@@H](CC(C)(C)F)C(=O)N1C[C@]2(C[C@H]1C#N)C(=O)Nc1cc(C(F)(F)F)ccc12 [Example 472, N—((S)-1-((3R,5′S)-5′-cyano-2-oxo-6-(trifluoromethyl)spiro[indoline-3,3′-pyrrolidin]-1′-yl)-4-fluoro-4-methyl-1-oxopentan-2-yl)-4,6-difluoro-N-(methyl-d3)-1H-indole-2-carboxamide]",< 100
15,"CN(C(=O)C1(c2ccncc2)CC1)[C@@H](CC(C)(C)F)C(=O)N1C[C@]2(C[C@H]1C#N)C(=O)Nc1ccc(Cl)cc12 [Example 473, N—((S)-1-((3R,5′S)-5-chloro-5′-cyano-2-oxospiro[indoline-3,3′-pyrrolidin]-1′-yl)-4-fluoro-4-methyl-1-oxopentan-2-yl)-N-methyl-1-(pyridin-4-yl)cyclopropane-1-carboxamide]",< 100
16,[2H]C([2H])([2H])N(C(=O)Cc1ccncc1)[C@@H](CC(C)(C)F)C(=O)N1C[C@]2(C[C@H]1C#N)C(=O)Nc1ccc(Cl)cc12 [Example 474],< 100
17,[2H]C([2H])([2H])N(C(=O)C1(c2ccncc2)CC1)[C@@H](CC(C)(C)F)C(=O)N1C[C@]2(C[C@H]1C#N)C(=O)Nc1ccc(Cl)cc12 [Example 475],< 100
18,CN(C(=O)Cc1cccnc1)[C@@H](CC(C)(C)F)C(=O)N1C[C@]2(C[C@H]1C#N)C(=O)Nc1ccc(Cl)cc12 [Example 476],< 100
19,CN(C(=O)Cc1ccncc1)[C@@H](CC(C)(C)F)C(=O)N1C[C@]2(C[C@H]1C#N)C(=O)Nc1ccc(Cl)cc12 [Example 477],< 100
20,CN(C(=O)C1(c2ccccn2)CC1)[C@@H](CC(C)(C)F)C(=O)N1C[C@]2(C[C@H]1C#N)C(=O)Nc1ccc(Cl)cc12 [Example 478],< 100
21,CN(C(=O)C1(c2cccnc2)CC1)[C@@H](CC(C)(C)F)C(=O)N1C[C@]2(C[C@H]1C#N)C(=O)Nc1ccc(Cl)cc12 [Example 479],< 100
22,CN(C(=O)C(F)(F)c1ccncc1)[C@@H](CC(C)(C)F)C(=O)N1C[C@]2(C[C@H]1C#N)C(=O)Nc1ccc(Cl)cc12 [Example 480],< 100

row,Structure (SMILES),IC50 [nM]
1,CN(C(=O)C(F)(F)c1ccccn1)[C@@H](CC(C)(C)F)C(=O)N1C[C@]2(C[C@H]1C#N)C(=O)Nc1ccc(Cl)cc12 [Example 481],< 100
2,CN(C(=O)C(F)(F)c1cccnc1)[C@@H](CC(C)(C)F)C(=O)N1C[C@]2(C[C@H]1C#N)C(=O)Nc1ccc(Cl)cc12 [Example 482],< 100
3,CN(C(=O)Cc1ccccn1)[C@@H](CC(C)(C)F)C(=O)N1C[C@]2(C[C@H]1C#N)C(=O)Nc1ccc(Cl)cc12 [Example 483],< 100
4,CN(C(=O)Cc1cnccn1)[C@@H](CC(C)(C)F)C(=O)N1C[C@]2(C[C@H]1C#N)C(=O)Nc1ccc(Cl)cc12 [Example 484],< 100
5,CN(C(=O)Cc1cccc(C(F)(F)F)n1)[C@@H](CC(C)(C)F)C(=O)N1C[C@]2(C[C@H]1C#N)C(=O)Nc1ccc(Cl)cc12 [Example 485],100 to 1000
6,Cc1cccc(C(F)(F)C(=O)N(C)[C@@H](CC(C)(C)F)C(=O)N2C[C@]3(C[C@H]2C#N)C(=O)Nc2ccc(Cl)cc23)n1 [Example 486],< 100
7,Cc1cccc(CC(=O)N(C)[C@@H](CC(C)(C)F)C(=O)N2C[C@]3(C[C@H]2C#N)C(=O)Nc2ccc(Cl)cc23)n1 [Example 487],< 100
8,CC(C)C[C@@H](C(=O)N1C[C@]2(C[C@H]1C#N)C(=O)Nc1ccccc12)N(C)C(=O)c1cc2cc(C(F)(F)F)cnc2[nH]1 [Example 488],< 100
9,CC(C)C[C@@H](C(=O)N1C[C@]2(C[C@H]1C#N)C(=O)Nc1ccccc12)N(C)C(=O)c1cc2cncnc2[nH]1 [Example 489],< 100
10,CC(C)C[C@@H](C(=O)N1C[C@]2(C[C@H]1C#N)C(=O)Nc1ccccc12)N(C)C(=O)c1cc2nccnc2[nH]1 [Example 490],< 100
11,CC(C)C[C@@H](C(=O)N1C[C@]2(C[C@H]1C#N)C(=O)Nc1ccccc12)N(C)C(=O)c1cc2ccc(C(C)C)nc2[nH]1 [Example 491],< 100
12,"N#C[C@@H]1C[C@@]2(CN1C(=O)[C@H](CC1CC1)NC(=O)OCc1c(F)cccc1F)C(=O)Nc1ccc(Cl)cc12 [Example 492, 2,6-difluorobenzyl ((S)-1-((3R,5′S)-5-chloro-5′-cyano-2-oxospiro[indoline-3,3′-pyrrolidin]-1′-yl)-3-cyclopropyl-1-oxopropan-2-yl)carbamate]",< 100
13,N#C[C@@H]1C[C@@]2(CN1C(=O)[C@H](CC1CC1)NC(=O)OCc1ccc(F)cc1F)C(=O)Nc1ccc(Cl)cc12 [Example 493],< 100
14,C[C@@H](OC(=O)N[C@@H](CC(C)(C)C)C(=O)N1C[C@]2(C[C@H]1C#N)C(=O)Nc1ccc(Cl)cc12)c1ccc(F)cc1 [Example 495],< 100
15,CC(C)(C)C[C@H](NC(=O)OC(C)(C)c1ccc(F)cc1)C(=O)N1C[C@]2(C[C@H]1C#N)C(=O)Nc1ccc(Cl)cc12 [Example 496],> 1000
16,"CC(C)C[C@@H](C(=O)N1C[C@]2(C[C@H]1C(=O)O)C(=O)Nc1ccc(Cl)cc12)N(C)C(=O)c1cc2c(F)cc(F)cc2[nH]1 [Example 497, (3R,5′S)-5-chloro-1′-(N-(4,6-difluoro-1H-indole-2-carbonyl)-N-methyl-L-leucyl)-2-oxospiro[indoline-3,3′-pyrrolidine]-5′-carboxylic acid]",> 1000
17,"C=C(C)c1ccc2c(c1)[C@@]1(C[C@@H](C#N)N(C(=O)[C@H](CC(C)C)N(C)C(=O)c3cc4c(F)cc(F)cc4[nH]3)C1)C(=O)N2 [Example 498, N—((S)-1-((3R,5′S)-5′-cyano-2-oxo-5-(prop-1-en-2-yl)spiro[indoline-3,3′-pyrrolidin]-1′-yl)-4-methyl-1-oxopentan-2-yl)-4,6-difluoro-N-methyl-1H-indole-2-carboxamide]",< 100
18,CC(=O)c1ccc2c(c1)[C@@]1(C[C@@H](C#N)N(C(=O)[C@H](CC(C)C)N(C)C(=O)c3cc4c(F)cc(F)cc4[nH]3)C1)C(=O)N2 [Example 499],< 100
19,"CC(C)C[C@@H](C(=O)N1C[C@]2(C[C@H]1C#N)C(=O)Nc1ccc(S(C)(=O)=O)cc12)N(C)C(=O)c1cc2c(F)cc(F)cc2[nH]1 [Example 500, N—((S)-1-((3R,5′S)-5′-cyano-5-(methylsulfonyl)-2-oxospiro[indoline-3,3′-pyrrolidin]-1′-yl)-4-methyl-1-oxopentan-2-yl)-4,6-difluoro-N-methyl-1H-indole-2-carboxamide]",< 100
20,"COC(=O)c1ccc2c(c1)[C@@]1(C[C@@H](C#N)N(C(=O)[C@H](CC(C)C)N(C)C(=O)c3cc4c(F)cc(F)cc4[nH]3)C1)C(=O)N2 [Example 501, methyl (3R,5′S)-5′-cyano-1′-(N-(4,6-difluoro-1H-indole-2-carbonyl)-N-methyl-L-leucyl)-2-oxospiro[indoline-3,3′-pyrrolidine]-5-carboxylate]",< 100
21,"CC(C)C[C@@H](C(=O)N1C[C@]2(C[C@H]1C#N)C(=O)Nc1ccc(C(=O)N3CCOCC3)cc12)N(C)C(=O)c1cc2c(F)cc(F)cc2[nH]1 [Example 502, N—((S)-1-((3R,5′S)-5′-cyano-5-(morpholine-4-carbonyl)-2-oxospiro[indoline-3,3′-pyrrolidin]-1′-yl)-4-methyl-1-oxopentan-2-yl)-4,6-difluoro-N-methyl-1H-indole-2-carboxamide]",< 100
22,"CC(C)C[C@@H](C(=O)N1C[C@]2(C[C@H]1C#N)C(=O)Nc1ccc(N=[N+]=[N-])cc12)N(C)C(=O)c1cc2c(F)cc(F)cc2[nH]1 [Example 503, N—((S)-1-((3R,5′S)-5-azido-5′-cyano-2-oxospiro[indoline-3,3′-pyrrolidin]-1′-yl)-4-methyl-1-oxopentan-2-yl)-4,6-difluoro-N-methyl-1H-indole-2-carboxamide]",< 100
